Laboratory results reported in patent US20040029926A1 (priority 2000, published 2004).

Experiment: Solubility in water, visual, confirmed by HPLC assay of a saturated solution
Type: physicochemical
Conditions: thermodynamic from solid
Description: Solubility of the Nitrate
The visual solubility was confirmed by an HPLC assay of a saturated solution. Solubility: 6 mg/ml.

## CN(CCOc1ccc(CC2SC(=O)NC2=O)cc1)c1ccccn1.O=[N+]([O-])O (stereo not shown) [Nitrate, 5-[4-[2-(N-methyl-N-(2-pyridyl)amino)ethoxy]benzyl]thiazolidine-2,4-dione nitrate]
  solubility: 6000 µg/mL
